Legend:
Human Axl = Human Axl (Homo sapiens (Human), UniProt P30530, Q764R); test: Human AXL kinase assay (33P radiometric, KinaseProfiler); type: biochemical; conditions: 10 μM ATP
Description: (§1) Kinase activity and compound inhibition were investigated using the ^33P-Phosphoryl transfer radiometric kinase assay, performed using the KinaseProfiler™ service of Eurofins Pharma Discovery Services UK Limited. Dose-response experiments were performed using nine compound concentrations in a 96-well microtiter plate. For each assay, all compounds were prepared to a 50× final assay concentration (50 μM) in 100% DMSO, then diluted in a half-log series, with the final top concentration at 1 μM. This working stock of the compound was added to the assay well as the first component in the reaction, followed by the remaining components as detailed in the following assay protocols below. The positive control wells (100% kinase activity) contain all components of the reaction including 2% DMSO (control for solvent effects), except the compound of interest. Blank wells contain all components of the reaction, with the reference inhibitor, staurosporine. This reference compound was used to abolish kinase activity and generated the 0% kinase activity base-line. IC50 values were calculated by nonlinear regression analysis using the sigmoidal dose-response (variable slope) curve fit on XLFit version 5.3 (ID Business Solutions).
Human Axl (residues H473-A894 with Q764R, 161 nM) was incubated with 8 mM MOPS pH 7.0, 0.2 mM EDTA, 250 μM KKSRGDYMTMQIG (SEQ ID NO. 43), 10 mM magnesium acetate and 10 μM [γ-33P-ATP]. The reaction was initiated by the addition of the Mg/ATP mix. After incubation for 40 minutes at room temperature, the reaction was stopped by the addition of phosphoric acid to a concentration of 0.5%. A reaction aliquot of 10 μL was then spotted onto a P30 filtermat and washed four times for 4 minutes in 0.425% phosphoric acid and once in methanol prior to drying and scintillation counting. Incorporated ^33P was measured using the Wallac Microbeta scintillation counter (Perkin Elmer).

KDR = KDR (Homo sapiens (Human), UniProt P35968); test: KDR autophosphorylation ELISA in HUVEC cells; type: cell-based; conditions: cellular, VEGF165-stimulated, phospho-KDR ELISA
Summary of the method: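 Serum-starved (24 h) HUVECs were pre-treated with compound (8-point dose curve, 0.3% DMSO final) for 1 h, then stimulated with 100 ng/mL human VEGF165 for 5 min. Lysate phospho-KDR was quantified by ELISA against a phospho-KDR standard. IC50 came from a 4-parameter logistic fit, normalized to stimulated-DMSO (100%) and unstimulated (0%) controls.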

Mer [1] = target: T1, Mer (Homo sapiens (Human), UniProt Q12866); test: Human Mer kinase assay (33P radiometric, KinaseProfiler); type: biochemical; conditions: 10 μM ATP
Description: as §1
Target sequence in this assay (Q12866 557-882): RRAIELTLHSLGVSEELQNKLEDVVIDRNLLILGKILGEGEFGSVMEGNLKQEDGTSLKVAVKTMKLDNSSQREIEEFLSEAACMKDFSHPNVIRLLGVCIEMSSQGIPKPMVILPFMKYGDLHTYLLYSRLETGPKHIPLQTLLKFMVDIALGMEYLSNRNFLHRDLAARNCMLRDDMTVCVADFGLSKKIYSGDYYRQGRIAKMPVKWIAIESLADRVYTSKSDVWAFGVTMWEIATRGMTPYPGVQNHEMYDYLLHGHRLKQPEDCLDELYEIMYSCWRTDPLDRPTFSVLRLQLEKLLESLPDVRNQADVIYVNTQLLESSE
Human Mer (residues R557-E882 with H628Q and R794A, 0.7 nM) was incubated with 8 mM MOPS pH 7.0, 0.2 mM EDTA, 30 mM NaCl, 250 μM GGMEDIYFEFMGGKKK (SEQ ID NO. 44), 10 mM magnesium acetate, and 10 μM [γ-33P-ATP]. The reaction was initiated by the addition of the Mg/ATP mix. After incubation for 40 minutes at room temperature, the reaction was stopped by the addition of phosphoric acid to a concentration of 0.5%. A reaction aliquot of 10 μL was then spotted onto a P30 filtermat and washed four times for 4 minutes in 0.425% phosphoric acid and once in methanol prior to drying and scintillation counting. Incorporated 33P was measured using the Wallac Microbeta scintillation counter (Perkin Elmer).

Mer [2] = target: T1, Mer; test: Mer autophosphorylation ELISA in transient transfected 293A cells; type: cell-based; conditions: cellular, MERTK-transfected 293A cells, phospho-Mer ELISA
Target sequence in this assay (Q12866 21-999): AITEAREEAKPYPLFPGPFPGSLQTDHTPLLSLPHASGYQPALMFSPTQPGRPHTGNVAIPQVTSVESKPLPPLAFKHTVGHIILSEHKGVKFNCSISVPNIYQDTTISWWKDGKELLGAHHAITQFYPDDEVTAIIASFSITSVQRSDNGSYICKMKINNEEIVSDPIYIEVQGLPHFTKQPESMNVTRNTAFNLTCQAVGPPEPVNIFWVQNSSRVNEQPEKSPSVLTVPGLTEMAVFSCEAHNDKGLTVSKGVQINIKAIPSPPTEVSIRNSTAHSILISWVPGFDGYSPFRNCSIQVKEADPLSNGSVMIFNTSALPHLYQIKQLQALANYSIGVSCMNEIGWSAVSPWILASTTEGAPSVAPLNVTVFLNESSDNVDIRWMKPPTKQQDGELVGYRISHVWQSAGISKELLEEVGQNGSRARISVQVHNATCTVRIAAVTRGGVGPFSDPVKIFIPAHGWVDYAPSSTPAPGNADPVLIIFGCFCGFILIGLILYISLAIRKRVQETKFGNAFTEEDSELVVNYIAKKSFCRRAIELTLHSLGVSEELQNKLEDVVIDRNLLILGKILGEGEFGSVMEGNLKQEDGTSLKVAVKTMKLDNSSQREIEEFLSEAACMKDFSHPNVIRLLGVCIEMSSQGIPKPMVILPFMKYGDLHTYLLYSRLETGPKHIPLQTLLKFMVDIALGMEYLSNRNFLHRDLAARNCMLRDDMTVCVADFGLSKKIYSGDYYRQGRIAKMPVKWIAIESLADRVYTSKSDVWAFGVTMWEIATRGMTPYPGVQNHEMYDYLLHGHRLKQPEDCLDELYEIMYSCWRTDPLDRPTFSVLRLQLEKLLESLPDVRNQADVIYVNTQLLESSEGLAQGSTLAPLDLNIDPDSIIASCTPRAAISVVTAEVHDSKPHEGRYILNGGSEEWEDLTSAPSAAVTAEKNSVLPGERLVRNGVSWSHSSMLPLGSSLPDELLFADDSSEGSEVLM

Sequence of Human Axl (P30530 473-894 Q764R): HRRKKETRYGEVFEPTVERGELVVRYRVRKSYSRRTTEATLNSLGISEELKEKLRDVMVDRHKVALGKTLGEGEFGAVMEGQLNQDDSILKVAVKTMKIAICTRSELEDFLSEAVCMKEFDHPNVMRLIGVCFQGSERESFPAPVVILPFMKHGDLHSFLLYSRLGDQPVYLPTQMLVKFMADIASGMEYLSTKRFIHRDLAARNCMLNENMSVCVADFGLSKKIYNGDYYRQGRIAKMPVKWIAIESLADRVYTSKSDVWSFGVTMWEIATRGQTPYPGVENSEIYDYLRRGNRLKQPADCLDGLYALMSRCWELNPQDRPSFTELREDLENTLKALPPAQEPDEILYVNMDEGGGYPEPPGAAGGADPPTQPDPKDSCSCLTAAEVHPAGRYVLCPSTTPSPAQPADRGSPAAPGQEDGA
Sequence of KDR (P35968 20-1356): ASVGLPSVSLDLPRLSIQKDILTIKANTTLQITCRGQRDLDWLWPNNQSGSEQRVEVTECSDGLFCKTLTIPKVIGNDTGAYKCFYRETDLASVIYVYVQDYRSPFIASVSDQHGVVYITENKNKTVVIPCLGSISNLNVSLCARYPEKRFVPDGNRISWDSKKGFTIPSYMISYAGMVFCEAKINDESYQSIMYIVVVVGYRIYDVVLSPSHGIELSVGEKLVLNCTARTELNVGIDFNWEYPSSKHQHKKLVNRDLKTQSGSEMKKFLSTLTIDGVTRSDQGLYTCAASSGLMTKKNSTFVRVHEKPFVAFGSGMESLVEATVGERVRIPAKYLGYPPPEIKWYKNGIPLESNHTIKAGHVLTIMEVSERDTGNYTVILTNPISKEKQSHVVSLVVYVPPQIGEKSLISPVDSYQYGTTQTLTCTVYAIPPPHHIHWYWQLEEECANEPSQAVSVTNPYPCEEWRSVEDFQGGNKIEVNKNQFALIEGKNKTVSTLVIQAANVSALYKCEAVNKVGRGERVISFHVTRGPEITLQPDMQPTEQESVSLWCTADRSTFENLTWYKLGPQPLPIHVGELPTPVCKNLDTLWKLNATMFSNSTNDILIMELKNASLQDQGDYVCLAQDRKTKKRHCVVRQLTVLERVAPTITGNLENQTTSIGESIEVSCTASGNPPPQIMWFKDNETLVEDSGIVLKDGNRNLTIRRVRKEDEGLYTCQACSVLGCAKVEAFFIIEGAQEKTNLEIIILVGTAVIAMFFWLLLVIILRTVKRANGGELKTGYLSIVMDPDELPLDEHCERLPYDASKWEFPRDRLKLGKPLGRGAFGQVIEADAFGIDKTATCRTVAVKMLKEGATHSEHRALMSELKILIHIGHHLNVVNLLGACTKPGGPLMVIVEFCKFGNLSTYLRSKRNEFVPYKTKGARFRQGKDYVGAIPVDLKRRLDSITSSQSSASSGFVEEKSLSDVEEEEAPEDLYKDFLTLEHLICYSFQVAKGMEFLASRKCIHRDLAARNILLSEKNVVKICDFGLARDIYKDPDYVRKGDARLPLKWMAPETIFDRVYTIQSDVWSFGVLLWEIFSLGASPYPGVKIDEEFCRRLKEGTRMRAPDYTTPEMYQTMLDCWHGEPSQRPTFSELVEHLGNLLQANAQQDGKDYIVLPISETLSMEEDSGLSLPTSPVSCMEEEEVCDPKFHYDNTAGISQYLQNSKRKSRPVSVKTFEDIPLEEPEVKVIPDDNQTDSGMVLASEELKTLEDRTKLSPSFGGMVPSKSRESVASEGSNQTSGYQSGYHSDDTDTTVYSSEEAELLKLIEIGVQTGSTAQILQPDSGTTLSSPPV

IC50 (Human Axl) | IC50 (KDR) | IC50 (Mer [1]) | IC50 (Mer [2]) | SMILES
10 to 100 nM | 100 to 300 nM | ≤ 10 nM | 10 to 100 nM | COc1cc2ncnc(Oc3ccc(NC(=O)C4(C(=O)Nc5ccc(F)cc5)CC4)cc3)c2cc1C(=O)NCCN1CCCC1 [Compound 118, 1-N′-(4-fluorophenyl)-1-N-[4-[7-methoxy-6-(2-pyrrolidin-1-ylethyl-carbamoyl)quinazolin-4-yl]oxyphenyl]cyclopropane-1,1-dicarboxamide]
≤ 10 nM | ≤ 10 nM | ≤ 10 nM | ≤ 10 nM | COc1cc2nccc(Oc3ccc(NC(=O)C4(C(=O)Nc5ccc(F)cc5)CC4)cc3)c2nc1OC [Compound 139, 1-N-[4-[(6,7-dimethoxy-1,5-naphthyridin-4-yl)oxy]phenyl]-1-N′-(4-fluorophenyl)cyclo-propane-1,1-dicarboxamide]
≤ 10 nM | ≤ 10 nM | ≤ 10 nM | ≤ 10 nM | COc1cc2nccc(Oc3ccc(NC(=O)C4(C(=O)Nc5ccc(F)cc5)CC4)cc3F)c2nc1OC [Compound 140, 1-N′-[4-[(6,7-dimethoxy-1,5-naphthyridin-4-yl)oxy]-3-fluorophenyl]-1-N-(4-fluorophenyl)cyclopropane-1,1-dicarboxamide]
